Where only a bound is given, the exact number is not on record here.

One may read the IC50 as the point on the concentration scale where inhibition reaches its midpoint.

Holding throughout (format): biochemical
In one experiment the target is T1, MMP-7 (Homo sapiens, UniProt P09237).
T1 construct: purchased R&D Systems 907-MP
T1 sequence (P09237 95-267): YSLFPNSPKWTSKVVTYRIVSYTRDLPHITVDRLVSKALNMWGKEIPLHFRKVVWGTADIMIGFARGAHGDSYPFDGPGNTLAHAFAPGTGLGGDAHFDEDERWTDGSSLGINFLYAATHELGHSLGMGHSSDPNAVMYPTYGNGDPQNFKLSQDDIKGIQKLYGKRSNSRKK
Description: In vitro MMP-7 inhibition test. In outline:
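APMA-activated recombinant MMP-7 (e.g. 0.5 nM final) in Tris/HCl pH 7.5 with CaCl2, NaCl and Brij-35; started with quenched fluorogenic Mca-PLGL-Dpa(Dnp)-AR-NH2 substrate (e.g. 10 μM final). Fluorescence (ex 320/em 410 nm) followed e.g. over 120 min at 32° C; IC50 is the concentration giving 50% signal.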

The next experiment has as its target T2, MMP-16 (Homo sapiens, UniProt P51512).
T2 construct: purchased R&D Systems 1785-MP
Description: In vitro MMP-16 inhibition test. In outline: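 Furin-activated recombinant MMP-16 (e.g. 1 nM) in 50 mM Tris/HCl pH 7.5, 10 mM CaCl2, 150 mM NaCl and 0.05% Brij-35 received compound in DMSO (e.g. 1 nM–30 μM), then 5 μM Mca-Lys-Pro-Leu-Gly-Leu-Dpa(Dnp)-Ala-Arg-NH2. Fluorescence (ex 320/em 410 nm) was followed, e.g. over 120 min at 32 °C. IC50 is the concentration halving the signal.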

For another experiment, the target named is T3, MMP-2 (Homo sapiens, UniProt P08253).
T3 construct: purchased R&D Systems 902-MP
T3 sequence (P08253 110-660): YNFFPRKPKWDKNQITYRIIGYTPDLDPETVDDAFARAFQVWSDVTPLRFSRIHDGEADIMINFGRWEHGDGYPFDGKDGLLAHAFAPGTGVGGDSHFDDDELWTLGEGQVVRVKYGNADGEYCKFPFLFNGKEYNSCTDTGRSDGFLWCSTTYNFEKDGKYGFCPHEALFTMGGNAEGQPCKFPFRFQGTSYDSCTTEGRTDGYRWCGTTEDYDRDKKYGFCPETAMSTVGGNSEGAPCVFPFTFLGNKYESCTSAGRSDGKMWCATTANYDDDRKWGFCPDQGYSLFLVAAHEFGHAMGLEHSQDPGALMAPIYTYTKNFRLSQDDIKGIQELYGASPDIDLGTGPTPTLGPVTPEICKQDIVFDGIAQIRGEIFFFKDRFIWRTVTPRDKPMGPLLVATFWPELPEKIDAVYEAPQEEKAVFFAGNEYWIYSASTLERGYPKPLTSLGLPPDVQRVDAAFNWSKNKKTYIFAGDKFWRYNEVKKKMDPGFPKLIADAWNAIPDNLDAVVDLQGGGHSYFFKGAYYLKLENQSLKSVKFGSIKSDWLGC
Description: In vitro MMP-2 inhibition test. In outline: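 APMA-activated recombinant MMP-2 (final e.g. 2 nM) in 50 mM Tris/HCl pH 7.5, 10 mM CaCl2, 150 mM NaCl, 0.05% Brij-35, with compound in DMSO. Started with quenched Mca-PLGL-Dpa(Dnp)-AR-NH2 (e.g. 10 μM); fluorescence (ex 320/em 410 nm) followed e.g. 120 min at 32° C.; IC50 at 50% signal.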

The target in the next experiment is T4, MMP-13 (Homo sapiens, UniProt P45452).
T4 construct: purchased R&D Systems 511-MP
Description: In vitro MMP-13 inhibition test. In outline: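 APMA-activated recombinant MMP-13 (e.g. 0.1 nM final) in 50 mM Tris/HCl pH 7.5, 10 mM CaCl2, 150 mM NaCl, 0.05% Brij-35 with Mca-PLGL-Dpa(Dnp)-AR-NH2 substrate (e.g. 10 μM final). Fluorescence (ex 320/em 410 nm) followed e.g. 120 min at 32 °C; IC50 at 50% signal.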

T2 sequence (P51512 120-564 limits assumed): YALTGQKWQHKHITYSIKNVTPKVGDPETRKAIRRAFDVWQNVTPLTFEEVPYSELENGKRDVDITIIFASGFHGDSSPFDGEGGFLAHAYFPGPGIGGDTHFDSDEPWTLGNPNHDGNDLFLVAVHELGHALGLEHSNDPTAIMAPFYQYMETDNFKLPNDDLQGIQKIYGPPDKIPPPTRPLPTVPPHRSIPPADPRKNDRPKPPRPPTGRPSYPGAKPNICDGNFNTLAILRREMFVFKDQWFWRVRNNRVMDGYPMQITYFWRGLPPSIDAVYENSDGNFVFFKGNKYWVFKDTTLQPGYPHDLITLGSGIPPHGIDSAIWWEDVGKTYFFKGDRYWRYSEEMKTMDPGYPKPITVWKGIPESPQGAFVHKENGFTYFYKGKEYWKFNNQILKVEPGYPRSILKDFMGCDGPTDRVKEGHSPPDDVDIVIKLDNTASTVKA

For the compound `O=C(O)[C@@H]1[C@@H](Cn2nnc3ccc(C(F)(F)F)cc3c2=O)CC[C@H]1C(=O)c1ccc(OCc2cccc(C(F)(F)F)c2)cc1` (single isomer, unassigned) [Example 19, (+)-(1RS,2SR,5RS)-2-{[4-Oxo-6-(trifluoromethyl)-1,2,3-benzotriazin-3(4H)-yl]methyl}-5-(4-{[3-(trifluoromethyl)benzyl]oxy}benzoyl)cyclopentanecarboxylic acid], the IC50 turned out to be 1.6 µM against MMP-7, 5.4 µM against MMP-16, 3.8 µM at MMP-2 and 2.6 µM against MMP-13.

For `COc1cccc(COc2ccc(C(=O)[C@@H]3CC[C@H](Cn4nnc5ccc(C)cc5c4=O)[C@H]3C(=O)O)cc2)c1` (single isomer, unassigned) [Example 107, (+)-(1RS,2RS,5SR)-2-{4-[(3-Methoxybenzyl)oxy]benzoyl}-5-[(6-methyl-4-oxo-1,2,3-benzotriazin-3(4H)-yl)methyl]cyclopentanecarboxylic acid], the IC50 on MMP-7 was 0.2 µM; at MMP-16, 0.65 µM; on MMP-2, 0.3 µM; against MMP-13, 0.15 µM.

Regarding `O=C(O)[C@H]1[C@H](Cn2nnc3ccccc3c2=O)CC[C@@H]1C(=O)c1ccc(OCc2ccc(Cl)c(Cl)c2)cc1` (racemic) [Example 3, (+/−)-(1RS,2RS,5SR)-2-{4-[(3,4-Dichlorobenzyl)oxy]benzoyl}-5-[(4-oxo-1,2,3-benzotriazin-3(4H)-yl)methyl]cyclopentanecarboxylic acid], the IC50 against MMP-7 came out at 4.9 µM; against MMP-16, 4 µM; against MMP-2, 0.19 µM; at MMP-13, 0.34 µM.

On to “(+)-(1RS,2RS,5SR)-2-{4-[Cyclohexyl)methyl)sulphanyl]benzoyl}-5-{[4-oxo-6-(trifluoromethyl)-1,2,3-benzotriazin-3(4H)-yl]methyl}cyclopentanecarboxylic acid [Example 86]”, for which the IC50 amounted to 1 µM at MMP-7, 14 µM against MMP-16, 4.8 µM at MMP-2 and 6.6 µM against MMP-13.

Turning to `O=C(O)[C@@H]1[C@@H](Cn2nnc3ccc(C(F)(F)F)cc3c2=O)CC[C@H]1C(=O)c1ccc(OCc2cccc(Cl)c2)cc1` (single isomer, unassigned) [Example 23, (+)-(1RS,2RS,5SR)-2-{4-[(3-Chlorobenzyl)oxy]benzoyl}-5-{[4-oxo-6-(trifluoromethyl)-1,2,3-benzotriazin-3(4H)-yl]methyl}cyclopentanecarboxylic acid], the IC50 against MMP-7 was 0.5 µM; at MMP-16 it was 2.2 µM; at MMP-2, 1.6 µM; at MMP-13, 1.5 µM.

Turning to `COC(=O)Nc1cccc(COc2ccc(C(=O)[C@@H]3CC[C@H](Cn4nnc5ccc(C(F)(F)F)cc5c4=O)[C@H]3C(=O)O)cc2)c1` (stereo in doubt) [Example 31, (+)-(1RS,2RS,5SR)-2-[4-({3-[(Methoxycarbonyl)amino]benzyl}oxy)benzoyl]-5-{[4-oxo-6-(trifluoromethyl)-1,2,3-benzotriazin-3(4H)-yl]methyl}cyclopentanecarboxylic acid], the IC50 was determined as 0.079 µM against MMP-7, 0.89 µM against MMP-16, 0.83 µM on MMP-2 and 0.19 µM against MMP-13.

On to `CCCCCCOc1ccc(C(=O)[C@@H]2CC[C@H](Cn3nnc4ccc(C(F)(F)F)cc4c3=O)[C@H]2C(=O)O)cc1` (single isomer, unassigned) [Example 58, (+)-(1RS,2RS,5SR)-2-[4-(Hexyloxy)benzoyl]-5-{[4-oxo-6-(trifluoromethyl)-1,2,3-benzotriazin-3(4H)-yl]methyl}cyclopentanecarboxylic acid], for which the IC50 against MMP-7 was 0.18 µM; at MMP-16, 2.3 µM; against MMP-2, 0.58 µM; against MMP-13 it was 0.44 µM.

Regarding `COc1cccc(COc2ccc(C(=O)[C@H]3CC[C@@H](Cn4nnc5ccc(C)cc5c4=O)[C@@H]3C(=O)O)cc2)c1` (racemic) [Example 106, (+/−)-(1RS,2RS,5SR)-2-{4-[(3-Methoxybenzyl)oxy]benzoyl}-5-[(6-methyl-4-oxo-1,2,3-benzotriazin-3(4H)-yl)methyl]cyclopentanecarboxylic acid], the IC50 amounted to 0.19 µM at MMP-7, 0.19 µM at MMP-16, 0.27 µM against MMP-2 and 0.12 µM against MMP-13.

As to `O=C(O)[C@@H]1[C@@H](Cn2nnc3ccc(C(F)(F)F)cc3c2=O)CC[C@H]1C(=O)c1ccc(SCc2ccccc2)cc1` (single isomer, unassigned) [Example 75, (+)-(1RS,2RS,5SR)-2-[4-(Benzylsulphanyl)benzoyl]-5-{[4-oxo-6-(trifluoromethyl)-1,2,3-benzotriazin-3(4H)-yl]methyl}cyclopentanecarboxylic acid], the IC50 against MMP-7 turned out to be 0.34 µM; against MMP-16, 3.6 µM; at MMP-2 it was 4.2 µM; at MMP-13, 2.3 µM.

For the compound `O=C(O)[C@@H]1[C@@H](Cn2nnc3ccc(C(F)(F)F)cc3c2=O)CC[C@H]1C(=O)c1ccc(OCC2CCCCC2)cc1` (single isomer, unassigned) [Example 41, (+)-(1RS,2RS,5SR)-2-[4-(Cyclohexylmethoxy)benzoyl]-5-{[4-oxo-6-(trifluoromethyl)-1,2,3-benzotriazin-3(4H)-yl]methyl}cyclopentanecarboxylic acid], the IC50 on MMP-7 came out at 0.068 µM; against MMP-16, 0.27 µM; against MMP-2, 0.097 µM; at MMP-13 it was 0.11 µM.

For the compound `O=C(O)[C@H]1[C@H](Cn2nnc3ccc(C(F)(F)F)cc3c2=O)CC[C@@H]1C(=O)c1ccc(OCc2ccc(F)cc2)cc1` (racemic) [Example 12, (+/−)-(1RS,2RS,5SR)-2-{4-[(4-Fluorobenzyl)oxy]benzoyl}-5-{[4-oxo-6-(trifluoromethyl)-1,2,3-benzotriazin-3(4H)-yl]methyl}cyclopentanecarboxylic acid], the IC50 at MMP-7 is 0.16 µM; at MMP-16 it was 0.086 µM; against MMP-2 it was 0.042 µM; at MMP-13 it was 0.039 µM.

With “(+)-(1RS,2SR,5RS)-2-{[4-Oxo-6-(trifluoromethyl)-1,2,3-benzotriazin-3(4H)-yl]methyl}-5-{4-[(2-phenylethy)sulphanyl]benzoyl}cyclopentanecarboxylic acid [Example 83]”, the IC50 against MMP-7 is 0.16 µM; against MMP-16, over 40 µM; against MMP-2, 6.7 µM; at MMP-13 it was 2.8 µM.

In the case of `Cc1ccc2nnn(C[C@H]3CC[C@@H](C(=O)c4ccc(OCc5cccc(C(F)(F)F)c5)cc4)[C@@H]3C(=O)O)c(=O)c2c1` (single isomer, unassigned) [Example 101, (+)-(1RS,2SR,5RS)-2-[(6-Methyl-4-oxo-1,2,3-benzotriazin-3(4H)-yl)methyl]-5-(4-{[3-(trifluoromethyl)benzyl]oxy}benzoyl)cyclopentanecarboxylic acid], the IC50 on MMP-7 was determined as 0.72 µM; at MMP-16 it was 0.88 µM; against MMP-2 it was 0.38 µM; on MMP-13, 0.21 µM.

For the compound `O=C(O)[C@@H]1[C@@H](Cn2nnc3ccc(C(F)(F)F)cc3c2=O)CC[C@H]1C(=O)c1ccc(OCc2ccc(F)cc2)cc1` (single isomer, unassigned) [Example 13, (+)-(1RS,2RS,5SR)-2-{4-[(4-Fluorobenzyl)oxy]benzoyl}-5-{[4-oxo-6-(trifluoromethyl)-1,2,3-benzotriazin-3(4H)-yl]methyl}cyclopentanecarboxylic acid], the IC50 against MMP-7 was 0.12 µM; against MMP-16, 0.17 µM; at MMP-2, 0.08 µM; against MMP-13 it was 0.033 µM.

(Values after patent US20170022171A1, “2,5-DISUBSTITUTED CYCLOPENTANECARBOXYLIC ACIDS AND THEIR USE” (Bayer Pharma Aktiengesellschaft, priority 2014, published 2017).)
